Measurements from ChEMBL document CHEMBL5038581, “Design, synthesis, and biological evaluation of novel dual inhibitors targeting lysine specific demethylase 1 (LSD1) and histone deacetylases (HDAC) for treatment of gastric cancer” (Eur J Med Chem, 2021).

Experiments:
[1] = system: MGC-803; assay: Induction of apoptosis in human MGC-803 cells assessed as decrease in Bcl2 protein expression at 1.25 to 7.5 uM incubated for 48 hrs by western blot analysis; assay type: functional, cell-based; conditions: dose 1.25-7.5 µM
[2] = target: CYP2D6 (Homo sapiens, UniProt P10635); assay: Inhibition of CYP2D6 (unknown origin) at 10 uM using dextromethorphan as substrate relative to control; assay type: ADME; conditions: probe dextromethorphan
CYP2D6, sequence (P10635 whole entry): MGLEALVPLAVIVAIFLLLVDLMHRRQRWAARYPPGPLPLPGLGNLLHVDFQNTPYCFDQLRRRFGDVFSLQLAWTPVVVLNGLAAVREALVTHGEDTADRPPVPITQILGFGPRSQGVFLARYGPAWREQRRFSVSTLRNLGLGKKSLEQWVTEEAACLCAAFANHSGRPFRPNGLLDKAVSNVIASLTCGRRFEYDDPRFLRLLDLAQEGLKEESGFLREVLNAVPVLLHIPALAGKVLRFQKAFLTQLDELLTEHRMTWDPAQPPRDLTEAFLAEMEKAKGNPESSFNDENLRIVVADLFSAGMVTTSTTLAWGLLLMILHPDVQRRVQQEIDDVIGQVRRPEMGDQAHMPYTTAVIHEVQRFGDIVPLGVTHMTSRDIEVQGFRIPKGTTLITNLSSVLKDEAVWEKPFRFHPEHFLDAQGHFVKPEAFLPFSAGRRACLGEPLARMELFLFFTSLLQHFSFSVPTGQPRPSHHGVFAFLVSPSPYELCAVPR

[3] = system: MGC-803; assay: Induction of apoptosis in human MGC-803 cells assessed as apoptotic cells at 5 uM incubated for 48 hrs by annexin V-FITC and PI staining based flowcytometry analysis (Rvb =4.3 %); assay type: functional
[4] = Metabolic stability in human liver microsomes assessed as intrinsic clearance in presence of NADPH at 1 uM by LC-MS/MS analysis; assay type: ADME, Microsome; conditions: read-out: CLH
[5] = target: Amine oxidase [flavin-containing] A (Homo sapiens, UniProt P21397); assay: Inhibition of human recombinant MAO-A by multimode plate reader assay
Amine oxidase [flavin-containing] A, sequence (P21397 whole entry): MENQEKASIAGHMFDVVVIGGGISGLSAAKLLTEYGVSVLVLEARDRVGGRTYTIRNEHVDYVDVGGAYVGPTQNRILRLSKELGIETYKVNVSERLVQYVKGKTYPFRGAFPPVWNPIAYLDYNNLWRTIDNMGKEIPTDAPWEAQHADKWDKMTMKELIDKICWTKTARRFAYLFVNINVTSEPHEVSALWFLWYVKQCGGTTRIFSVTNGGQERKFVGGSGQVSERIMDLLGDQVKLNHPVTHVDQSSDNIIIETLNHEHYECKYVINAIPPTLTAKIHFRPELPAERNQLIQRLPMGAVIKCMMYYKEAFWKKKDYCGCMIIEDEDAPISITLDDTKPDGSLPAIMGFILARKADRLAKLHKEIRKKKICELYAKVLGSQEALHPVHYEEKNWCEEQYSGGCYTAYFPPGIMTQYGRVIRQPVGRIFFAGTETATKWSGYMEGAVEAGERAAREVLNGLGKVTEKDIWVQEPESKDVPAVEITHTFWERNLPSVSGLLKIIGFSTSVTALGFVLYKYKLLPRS

[6] = target: Histone deacetylase 1 (Homo sapiens, UniProt Q13547); assay: Inhibition of HDAC1 (unknown origin) using Ac-peptide as substrate preincubated for 15 mins followed by substrate addition by fluorescence assay
Histone deacetylase 1, sequence (Q13547 whole entry): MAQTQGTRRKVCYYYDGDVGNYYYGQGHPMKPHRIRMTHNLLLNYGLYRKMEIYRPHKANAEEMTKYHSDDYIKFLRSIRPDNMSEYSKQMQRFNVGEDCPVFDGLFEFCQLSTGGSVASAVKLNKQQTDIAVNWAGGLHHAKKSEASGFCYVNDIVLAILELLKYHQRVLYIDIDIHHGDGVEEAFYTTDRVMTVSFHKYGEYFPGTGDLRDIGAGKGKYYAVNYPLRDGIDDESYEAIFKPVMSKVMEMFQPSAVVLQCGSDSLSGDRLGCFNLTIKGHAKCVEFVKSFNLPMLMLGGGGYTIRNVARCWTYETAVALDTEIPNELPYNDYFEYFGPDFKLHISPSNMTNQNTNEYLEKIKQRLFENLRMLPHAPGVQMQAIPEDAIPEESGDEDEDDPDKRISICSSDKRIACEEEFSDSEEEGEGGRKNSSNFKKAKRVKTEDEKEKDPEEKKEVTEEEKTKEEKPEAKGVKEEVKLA

[7] = target: CYP2C9 (Homo sapiens, UniProt P11712); assay: Inhibition of CYP2C9 (unknown origin) at 10 uM using diclofenac as substrate relative to control; assay type: ADME; conditions: probe diclofenac
CYP2C9, sequence (P11712 whole entry): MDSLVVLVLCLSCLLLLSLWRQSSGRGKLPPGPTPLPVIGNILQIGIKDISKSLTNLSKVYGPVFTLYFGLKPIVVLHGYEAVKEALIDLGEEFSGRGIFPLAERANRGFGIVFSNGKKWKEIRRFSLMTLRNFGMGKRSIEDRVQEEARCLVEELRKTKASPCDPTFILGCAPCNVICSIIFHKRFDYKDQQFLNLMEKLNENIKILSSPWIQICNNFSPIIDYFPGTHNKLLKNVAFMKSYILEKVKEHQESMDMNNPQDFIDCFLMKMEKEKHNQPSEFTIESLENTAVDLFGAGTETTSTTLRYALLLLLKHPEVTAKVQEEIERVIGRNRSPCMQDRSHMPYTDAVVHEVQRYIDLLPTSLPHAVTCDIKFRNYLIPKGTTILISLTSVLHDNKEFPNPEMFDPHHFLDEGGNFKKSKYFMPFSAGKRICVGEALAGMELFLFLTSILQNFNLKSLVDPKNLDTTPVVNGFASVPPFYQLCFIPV

[8] = system: HCT-116; assay: cells; conditions: Homo sapiens, HCT-116, 72 h
[9] = system: MGC-803; assay: Induction of apoptosis in human MGC-803 cells assessed as apoptotic cells at 2.5 uM incubated for 48 hrs by annexin V-FITC and PI staining based flowcytometry analysis (Rvb =4.9 %); assay type: functional
[10] = target: T1, CYP1A2 (Homo sapiens, UniProt P05177); assay: Inhibition of CYP1A2 (unknown origin) at 10 uM using phenacetin as substrate relative to control; assay type: ADME; conditions: probe phenacetin
T1 sequence (P05177 whole entry): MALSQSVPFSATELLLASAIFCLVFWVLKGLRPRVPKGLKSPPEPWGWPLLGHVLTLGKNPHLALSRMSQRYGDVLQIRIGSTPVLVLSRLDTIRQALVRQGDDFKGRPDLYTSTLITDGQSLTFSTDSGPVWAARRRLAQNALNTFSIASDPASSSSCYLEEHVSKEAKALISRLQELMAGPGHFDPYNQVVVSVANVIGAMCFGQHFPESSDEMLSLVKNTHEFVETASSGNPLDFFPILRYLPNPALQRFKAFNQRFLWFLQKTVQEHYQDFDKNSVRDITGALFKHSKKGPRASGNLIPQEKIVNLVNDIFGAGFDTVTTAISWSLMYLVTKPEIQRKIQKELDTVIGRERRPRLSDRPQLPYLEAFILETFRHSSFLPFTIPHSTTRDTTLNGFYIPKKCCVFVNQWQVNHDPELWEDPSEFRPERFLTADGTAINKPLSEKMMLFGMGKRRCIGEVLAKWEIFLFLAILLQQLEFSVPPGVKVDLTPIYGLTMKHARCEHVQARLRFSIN

[11] = target: T2, Protein deacetylase HDAC6 (Homo sapiens, UniProt Q9UBN7); assay: Inhibition of HDAC6 (unknown origin) using Ac-peptide as substrate preincubated for 15 mins followed by substrate addition by fluorescence assay
T2 sequence (Q9UBN7 whole entry): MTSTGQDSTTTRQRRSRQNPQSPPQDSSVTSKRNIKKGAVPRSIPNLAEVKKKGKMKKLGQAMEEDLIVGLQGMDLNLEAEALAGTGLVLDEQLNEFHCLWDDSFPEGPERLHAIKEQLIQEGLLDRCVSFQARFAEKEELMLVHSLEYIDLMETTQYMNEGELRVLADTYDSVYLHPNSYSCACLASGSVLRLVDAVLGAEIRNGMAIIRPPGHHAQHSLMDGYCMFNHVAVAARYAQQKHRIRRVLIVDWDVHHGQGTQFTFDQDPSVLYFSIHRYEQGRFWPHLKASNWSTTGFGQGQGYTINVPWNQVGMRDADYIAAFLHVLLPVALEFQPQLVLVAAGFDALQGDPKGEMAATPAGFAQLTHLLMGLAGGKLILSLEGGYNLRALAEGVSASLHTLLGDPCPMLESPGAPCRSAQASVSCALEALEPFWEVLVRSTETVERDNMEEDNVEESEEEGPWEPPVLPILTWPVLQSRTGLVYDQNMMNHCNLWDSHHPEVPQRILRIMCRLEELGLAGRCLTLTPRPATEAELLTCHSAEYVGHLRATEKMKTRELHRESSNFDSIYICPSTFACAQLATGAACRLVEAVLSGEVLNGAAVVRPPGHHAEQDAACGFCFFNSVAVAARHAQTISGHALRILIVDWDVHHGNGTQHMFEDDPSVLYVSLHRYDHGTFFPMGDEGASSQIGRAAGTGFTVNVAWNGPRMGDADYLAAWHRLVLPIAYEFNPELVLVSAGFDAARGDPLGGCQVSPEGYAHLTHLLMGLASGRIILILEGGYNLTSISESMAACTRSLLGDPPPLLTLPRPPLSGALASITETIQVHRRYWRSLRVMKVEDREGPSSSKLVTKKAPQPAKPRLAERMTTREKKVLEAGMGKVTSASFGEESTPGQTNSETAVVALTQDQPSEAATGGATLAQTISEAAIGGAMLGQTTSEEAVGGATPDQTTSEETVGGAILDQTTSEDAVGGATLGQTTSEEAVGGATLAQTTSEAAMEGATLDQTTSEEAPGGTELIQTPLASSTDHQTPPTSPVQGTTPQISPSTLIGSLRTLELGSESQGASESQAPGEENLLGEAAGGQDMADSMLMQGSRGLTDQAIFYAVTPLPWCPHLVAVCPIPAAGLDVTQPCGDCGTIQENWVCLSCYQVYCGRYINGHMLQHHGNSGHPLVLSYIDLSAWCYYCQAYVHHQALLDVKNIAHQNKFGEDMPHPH

[12] = target: CYP2C19 (Homo sapiens, UniProt P33261); assay: Inhibition of CYP2C19 (unknown origin) at 10 uM using S-mephenytoin as substrate relative to control; assay type: ADME; conditions: probe S-mephenytoin
CYP2C19, sequence (P33261 whole entry): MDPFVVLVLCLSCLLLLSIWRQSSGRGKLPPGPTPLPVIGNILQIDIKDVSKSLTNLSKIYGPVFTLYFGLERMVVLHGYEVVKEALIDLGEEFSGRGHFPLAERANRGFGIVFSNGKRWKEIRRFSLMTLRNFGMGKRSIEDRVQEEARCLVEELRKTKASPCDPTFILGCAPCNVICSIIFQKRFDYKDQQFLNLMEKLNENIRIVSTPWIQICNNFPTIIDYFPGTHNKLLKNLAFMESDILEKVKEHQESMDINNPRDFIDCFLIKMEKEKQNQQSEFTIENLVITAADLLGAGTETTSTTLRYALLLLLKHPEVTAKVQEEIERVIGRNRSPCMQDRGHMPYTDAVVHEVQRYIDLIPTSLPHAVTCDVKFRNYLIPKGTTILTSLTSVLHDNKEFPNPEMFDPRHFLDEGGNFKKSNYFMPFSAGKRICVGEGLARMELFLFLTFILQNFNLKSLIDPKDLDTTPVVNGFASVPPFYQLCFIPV

[13] = target: Histone deacetylase 11 (Homo sapiens, UniProt Q96DB2); assay: Inhibition of HDAC11 (unknown origin) using Ac-peptide as substrate preincubated for 15 mins followed by substrate addition by fluorescence based microplate reader analysis
Histone deacetylase 11, sequence (Q96DB2 whole entry): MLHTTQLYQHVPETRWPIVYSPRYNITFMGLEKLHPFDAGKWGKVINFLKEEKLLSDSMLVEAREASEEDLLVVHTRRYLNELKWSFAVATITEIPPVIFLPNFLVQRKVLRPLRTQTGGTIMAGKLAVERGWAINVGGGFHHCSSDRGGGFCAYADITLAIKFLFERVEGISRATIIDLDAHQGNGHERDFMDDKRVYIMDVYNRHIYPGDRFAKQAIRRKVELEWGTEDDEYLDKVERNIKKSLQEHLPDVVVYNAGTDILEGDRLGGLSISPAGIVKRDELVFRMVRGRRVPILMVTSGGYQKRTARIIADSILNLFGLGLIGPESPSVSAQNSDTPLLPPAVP

[14] = target: CYP3A4 (Homo sapiens, UniProt P08684); assay: Inhibition of CYP3A4 (unknown origin) at 10 uM using testosterone as substrate relative to control; assay type: ADME; conditions: probe testosterone
CYP3A4, sequence (P08684 whole entry): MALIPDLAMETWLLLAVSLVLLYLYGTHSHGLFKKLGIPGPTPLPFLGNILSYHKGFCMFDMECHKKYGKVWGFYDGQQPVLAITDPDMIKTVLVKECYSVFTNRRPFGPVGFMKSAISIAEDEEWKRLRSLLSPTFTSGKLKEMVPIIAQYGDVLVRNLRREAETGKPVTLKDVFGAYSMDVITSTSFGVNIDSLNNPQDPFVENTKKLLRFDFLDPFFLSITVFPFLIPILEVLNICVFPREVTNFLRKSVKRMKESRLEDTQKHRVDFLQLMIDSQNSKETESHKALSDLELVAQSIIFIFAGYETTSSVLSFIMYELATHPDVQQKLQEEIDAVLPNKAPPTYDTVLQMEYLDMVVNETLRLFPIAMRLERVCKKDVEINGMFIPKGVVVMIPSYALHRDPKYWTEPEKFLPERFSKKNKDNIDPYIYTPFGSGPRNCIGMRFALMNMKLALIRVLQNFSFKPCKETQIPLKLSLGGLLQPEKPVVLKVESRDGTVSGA

[15] = system: MGC-803; assay: cells; conditions: Homo sapiens, MGC-803, 72 h
[16] = Metabolic stability in human liver microsomes assessed as half life in presence of NADPH at 1 uM by LC-MS/MS analysis; assay type: ADME, Microsome
[17] = target: Amine oxidase [flavin-containing] B (Homo sapiens, UniProt P27338); assay: Inhibition of human recombinant MAO-B by multimode plate reader assay
Amine oxidase [flavin-containing] B, sequence (P27338 whole entry): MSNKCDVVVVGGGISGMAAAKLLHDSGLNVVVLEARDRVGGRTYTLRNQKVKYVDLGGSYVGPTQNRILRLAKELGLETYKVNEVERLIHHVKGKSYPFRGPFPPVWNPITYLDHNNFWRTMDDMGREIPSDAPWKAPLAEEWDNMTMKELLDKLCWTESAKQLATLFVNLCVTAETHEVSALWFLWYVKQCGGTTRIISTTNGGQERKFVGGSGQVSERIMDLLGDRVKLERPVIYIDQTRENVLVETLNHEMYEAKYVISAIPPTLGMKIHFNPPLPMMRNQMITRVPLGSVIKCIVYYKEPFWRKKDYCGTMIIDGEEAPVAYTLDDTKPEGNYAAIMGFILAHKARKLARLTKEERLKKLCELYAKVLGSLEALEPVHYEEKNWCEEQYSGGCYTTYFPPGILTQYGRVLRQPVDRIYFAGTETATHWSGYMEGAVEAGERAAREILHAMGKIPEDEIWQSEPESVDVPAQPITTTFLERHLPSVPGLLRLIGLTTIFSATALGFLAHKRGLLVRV

[18] = system: MGC-803; assay: Induction of apoptosis in human MGC-803 cells assessed as increase in Bax protein expression at 1.25 to 7.5 uM incubated for 48 hrs by western blot analysis; assay type: functional, cell-based; conditions: dose 1.25-7.5 µM

| inhibition at 10 µM [2] [%] | microsomal CLint at 1 µM [4] [µL/min/mg] | IC50 [5] [nM] | IC50 [6] [nM] | inhibition at 10 µM [7] [%] | IC50 [8] [nM] | inhibition at 10 µM [10] [%] | IC50 [11] [nM] | inhibition at 10 µM [12] [%] | IC50 [13] [nM] | inhibition at 10 µM [14] [%] | IC50 [15] [nM] | half-life at 1 µM [16] [min] | IC50 [17] [nM] | SMILES | Activity [1] | Activity [3] [%] | Activity [9] [%] | Activity [18] |
| --- | --- | --- | --- | --- | --- | --- | --- | --- | --- | --- | --- | --- | --- | --- | --- | --- | --- | --- |
| 15 | 105 | 34100 | 220 | 13.1 | 1450 | 48.4 | 47 | 18.7 | > 10000 | 87.9 | 1420 | 33 | 69400 | O=C(NO)c1ccc(/C=C/c2ccnc(-c3ccccc3O)c2)cc1 | Dose-Dependent Effect | 71.9 | 33.2 | Dose-Dependent Effect |
| 5.8 | 67.4 | > 100000 | 370 | 11.7 | 800 | 0.95 | 15 | 22.8 | 4930 | 47.6 | 770 | 51.3 | > 100000 | Cc1ccc(-c2cc(/C=C/c3ccc(C(=O)NO)cc3)ccn2)c(F)c1 | Dose-Dependent Effect | 82.2 | 77.9 | Dose-Dependent Effect |
